Each structure is given as a SMILES string.

Assay [1] has as its system Gdn13 wt (P2 wild-type, ACGG loop) (RNA, riboswitch) GGGGACGGCCCCA
The assay can be described thus: 1H-1D NMR titration. Conditions: 5 mM Mg2+, 50 mM KCl; 25 mM potassium phosphate, pH 6.2, room temperature; KD not detected; up to 8 mM Gdm+ (Table 2).

The test system of assay [2] is Gdn49 wt (aptamer wild-type, AG) (RNA, riboswitch) GGUUUGCAGGACGACCUGCAAACGCCUCUUUUCACCGGGGACGGCCCCA
Kind of assay: 1H-1D NMR titration, U17 imino, Hill fit. The settings on record: 5 mM Mg2+, 50 mM KCl; 25 mM potassium phosphate, pH 6.2, room temperature, 50 μM RNA, Hill n 1.10; no binding without Mg2+.

In assay [3] the test system is Gdn49 P1P2mut (A14G, G44A, GA) (RNA, riboswitch) GGUUUGCAGGACGGCCUGCAAACGCCUCUUUUCACCGGGGACGACCCCA
Kind of assay: 1H-1D NMR titration, U17 imino, Hill fit. The settings on record: 5 mM Mg2+, 50 mM KCl; 25 mM potassium phosphate, pH 6.2, room temperature, 50 μM RNA, Hill n 1.38.

Assay [4] relates to Gdn49 P1mut (A14G, GG) (RNA, riboswitch) GGUUUGCAGGACGGCCUGCAAACGCCUCUUUUCACCGGGGACGGCCCCA
The assay can be described thus: 1H-1D NMR titration, U17 imino, Hill fit. Conditions: 5 mM Mg2+, 50 mM KCl; 25 mM potassium phosphate, pH 6.2, room temperature, 50 μM RNA, Hill n 1.35.

The subject of assay [5] is Gdn49 P2mut (G44A, AA) (RNA, riboswitch) GGUUUGCAGGACGACCUGCAAACGCCUCUUUUCACCGGGGACGACCCCA
The assay can be described thus: 1H-1D NMR titration, U17 imino, Hill fit. The settings on record: 5 mM Mg2+, 50 mM KCl; 25 mM potassium phosphate, pH 6.2, room temperature, 50 μM RNA, Hill n 1.01; two bound signals summed.

Assay [6] concerns Gdn13 G44A (RNA, riboswitch) GGGGACGACCCCA
The assay can be described thus: 1H-1D NMR, chemical shift perturbation. Conditions: 5 mM Mg2+, 50 mM KCl; 25 mM potassium phosphate, pH 6.2, room temperature, 20 μM RNA, 1 mM Gdm+.

Assay [7] concerns Gdn23 wt (P1 wild-type, ACGA loop) (RNA, riboswitch) GGUUUGCAGGACGACCUGCAAAC
The assay can be described thus: 1H-1D NMR titration, U17 imino, Hill fit. The settings on record: 5 mM Mg2+, 50 mM KCl; 25 mM potassium phosphate, pH 6.2, room temperature, 50 μM RNA, Hill n 1.16.

Take `N=C(N)N`: the binding result in assay [1] is “no”; in assay [6], “yes”. For the same compound, the KD in assay [2] amounted to 133.4 ± 3.9 µM; in assay [3], 165.0 ± 14.3 µM; in assay [4], 264.3 ± 27.8 µM; in assay [5], 58.9 ± 8.1 µM; in assay [7] it was 197.4 ± 8.8 µM.

The values are drawn from paper PMC9300104 (2021).
